We go through eleven compounds from ChEMBL document CHEMBL1201862, “PubChem BioAssay data set” (2004).

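In this assay, cells in 96-well plates receive the compound at five concentrations for 48 hours. Endpoints are linearly interpolated between the surrounding concentrations. Abbreviation: GI50, concentration required for 50% inhibition of growth.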 Active and inactive are the calls of the source. No stated cut-off is given here; in the data, active = GI50 up to about 1.1 µM and inactive = higher.

Among the test systems are SF-268; HOP-92; SK-MEL-28; HT-29; NCI-H522; HOP-62; M14; 786-0; SF-295; EKVX; CCRF-CEM; UO-31; COLO 205; SR; UACC-62; LOX IMVI; TK-10; OVCAR-4; MOLT-4.
Common to all, as to experiment: NCI anticancer screen, dose series, 48 h

With `Cc1c(-c2ccccc2)c(C#N)c2nnn(C3CCCCC3)c(=O)n12`, the GI50 in the test on SF-268 is > 100 µM (inactive); in the test on HOP-92, 24 µM (inactive); in the test with SK-MEL-28, > 100 µM (inactive); with HT-29, 11.6 µM (inactive); in the test with NCI-H522, > 100 µM (inactive); with HOP-62, 14.7 µM (inactive). Besides, the GI50 was 87.3 µM (inactive) in the test with M14; 24.5 µM (inactive) in the test with 786-0; 29.5 µM (inactive) in the test with SF-295; 37 µM (inactive) with EKVX; > 100 µM (inactive) in the test with CCRF-CEM; 0.74 µM (active) with UO-31. Also, the GI50 was 88.1 µM (inactive) with COLO 205; 24.8 µM (inactive) with SR; > 100 µM (inactive) with UACC-62; > 100 µM (inactive) in the test with LOX IMVI; > 100 µM (inactive) in the test with TK-10; 40.6 µM (inactive) with OVCAR-4.

With `CC1(C)O[C@@H]2[C@@H](COC(=O)c3ccccc3)C[C@@H](C#N)[C@@H]2O1`, the GI50 in the test with SF-268, in the test with HOP-92, in the test on SK-MEL-28, with HT-29, with NCI-H522 and with HOP-62 was > 100 µM (inactive) throughout. Besides, the GI50 with M14, with 786-0, with SF-295, in the test with CCRF-CEM, in the test on UO-31 and in the test with COLO 205 was > 100 µM (inactive) in each case. Further, the GI50 in the test with SR, in the test on UACC-62, in the test with LOX IMVI, with MOLT-4, in the test on TK-10 and in the test on OVCAR-4 was > 100 µM (inactive) in each case.

As to `COc1ccc(C2c3cc4c(cc3OC(NNS(=O)(=O)c3ccc(C)cc3)C2C)OCO4)cc1` (stereo not drawn), the GI50 in the test with SF-268 was > 100 µM (inactive); in the test on HOP-92 it was 21.1 µM (inactive); in the test with SK-MEL-28, > 100 µM (inactive); in the test with HT-29 it was 93.8 µM (inactive); with NCI-H522 it was 11.8 µM (inactive); in the test with HOP-62 it was > 100 µM (inactive). Besides, the GI50 was > 100 µM (inactive) in the test with M14; 50.1 µM (inactive) in the test with 786-0; 21.9 µM (inactive) with SF-295; 11.1 µM (inactive) in the test on CCRF-CEM; 31.2 µM (inactive) in the test on UO-31; 36.3 µM (inactive) in the test with COLO 205. Moreover, the GI50 with SR was 9.12 µM (inactive); with UACC-62, 71.6 µM (inactive); in the test with LOX IMVI, 79.8 µM (inactive); with MOLT-4 it was 13.1 µM (inactive); in the test on TK-10, > 100 µM (inactive).

Consider `COc1ccc2c(c1)CC[C@@H]1C2CC[C@]2(C)C(=O)N(CCN(C)C)C(=O)CC12` (stereo partly drawn), for which the GI50 in the test with SF-268, in the test with HOP-92, in the test on SK-MEL-28, with HT-29, in the test on NCI-H522 and in the test with HOP-62 was > 100 µM (inactive) throughout. For the same compound, the GI50 in the test on M14, with 786-0, with SF-295, with EKVX, in the test on CCRF-CEM and in the test on UO-31 was > 100 µM (inactive) each time. The GI50 in the test with COLO 205, in the test with SR, with UACC-62, with MOLT-4, in the test with TK-10 and in the test on OVCAR-4 was > 100 µM (inactive) throughout.

Turning to `O=C(Cc1ccccc1)NCCCN(CCCCN(CCCNC(=O)Cc1ccccc1)C(=O)OCc1ccccc1)C(=O)OCc1ccccc1`, the GI50 with SF-268 is > 100 µM (inactive); in the test on HOP-92, > 25.2 µM (inactive); in the test with SK-MEL-28 it was > 100 µM (inactive); in the test with HT-29, > 24.8 µM (inactive); with NCI-H522, 1.42 µM (inactive); in the test with HOP-62 it was > 100 µM (inactive). The GI50 with M14 was > 100 µM (inactive); with 786-0 it was > 100 µM (inactive); in the test on SF-295 it was > 100 µM (inactive); with EKVX it was > 49.8 µM (inactive); in the test on CCRF-CEM, > 20.3 µM (inactive); in the test with UO-31 it was 1.66 µM (inactive). For the same compound, the GI50 in the test on COLO 205 was 6.07 µM (inactive); in the test with SR it was 30.4 µM (inactive); in the test with UACC-62, > 100 µM (inactive); with LOX IMVI it was > 100 µM (inactive); with MOLT-4, 4.49 µM (inactive); in the test on TK-10, > 100 µM (inactive).

For the compound `O=c1[nH]c2c(S)nc(O)nc2n1-c1ccccc1`, the GI50 with SF-268, with HOP-92, in the test with SK-MEL-28, in the test on HT-29, with NCI-H522 and in the test with HOP-62 was > 100 µM (inactive) in each case. Besides, the GI50 in the test on M14, with 786-0, in the test on SF-295, in the test with EKVX, in the test on UO-31 and with SR was > 100 µM (inactive) each time. For the same compound, the GI50 in the test with UACC-62, in the test on LOX IMVI, in the test with MOLT-4, in the test on TK-10 and in the test on OVCAR-4 was > 100 µM (inactive) in each case.

Take `COc1ccc(CN2C(=O)CCC/C=C\[C@H]2CI)cc1`: the GI50 with SF-268 is 13.4 µM (inactive); in the test with HOP-92, 12.8 µM (inactive); with SK-MEL-28, 12.6 µM (inactive); with HT-29, 9.71 µM (inactive); in the test with NCI-H522, 12.7 µM (inactive); with HOP-62 it was 16 µM (inactive). The GI50 in the test on M14 is 10.7 µM (inactive); in the test on 786-0, 14 µM (inactive); in the test with SF-295, 13.5 µM (inactive); in the test on EKVX, 10.7 µM (inactive); with UO-31, 11.6 µM (inactive); with COLO 205, 13.9 µM (inactive). Besides, the GI50 in the test with SR is 11.5 µM (inactive); in the test with UACC-62, 10.8 µM (inactive); in the test on LOX IMVI, 17.6 µM (inactive); in the test on MOLT-4, 10.1 µM (inactive); in the test with TK-10, 12.5 µM (inactive); with OVCAR-4, 10.9 µM (inactive).

`N#CCCC1(CCC#N)CCCCCCCCC(CCC#N)(CCC#N)C(=O)C1=O`: the GI50 in the test with SF-268 is > 100 µM (inactive); with HOP-92, > 100 µM (inactive); in the test with SK-MEL-28 it was > 100 µM (inactive); in the test on HT-29 it was > 100 µM (inactive); with NCI-H522 it was 5.81 µM (inactive); with HOP-62, > 100 µM (inactive). In addition, the GI50 with M14, with 786-0, in the test with SF-295, in the test on EKVX, in the test on COLO 205 and in the test with SR was > 100 µM (inactive) in each case. For the same compound, the GI50 with UACC-62, in the test on LOX IMVI, in the test on TK-10 and with OVCAR-4 was > 100 µM (inactive) each time.

Regarding `COC(=O)c1c(O)ccc2c1c1c(n2Cc2ccc(Cl)cc2Cl)C(=O)c2ccccc2C1=O`, the GI50 with SF-268 is 10.1 µM (inactive); in the test with HOP-92, 12.2 µM (inactive); with SK-MEL-28, 16.2 µM (inactive); in the test with HT-29 it was 17.6 µM (inactive); with NCI-H522 it was 7.46 µM (inactive); in the test on HOP-62, 9.18 µM (inactive). For the same compound, the GI50 is 14.1 µM (inactive) in the test on M14; 10.1 µM (inactive) in the test with 786-0; 11.8 µM (inactive) in the test with SF-295; 10.4 µM (inactive) in the test with EKVX; 4.12 µM (inactive) with CCRF-CEM; 10.5 µM (inactive) in the test with UO-31. In addition, the GI50 with COLO 205 is 11.2 µM (inactive); in the test with SR, 3.44 µM (inactive); with LOX IMVI, 12.7 µM (inactive); in the test on MOLT-4 it was 2.27 µM (inactive); with TK-10, 14.9 µM (inactive); in the test on OVCAR-4 it was 1.95 µM (inactive).

`CCNC1(c2cccc(C)c2)OC(C)(C)c2cccc3cccc1c23` (stereo not drawn): the GI50 with SF-268 is 16 µM (inactive); in the test on HOP-92, 3.83 µM (inactive); in the test on HT-29, 14 µM (inactive); in the test with NCI-H522, 15.1 µM (inactive); with HOP-62 it was 21 µM (inactive); in the test with M14 it was 17.8 µM (inactive). Besides, the GI50 was 18.8 µM (inactive) in the test with 786-0; 17.9 µM (inactive) in the test with SF-295; 18.8 µM (inactive) in the test on EKVX; 2.5 µM (inactive) in the test with CCRF-CEM; 16.1 µM (inactive) in the test on UO-31; 16.1 µM (inactive) in the test with COLO 205. Also, the GI50 in the test on SR is 5.16 µM (inactive); with UACC-62, 15.6 µM (inactive); in the test with LOX IMVI it was 17.3 µM (inactive); in the test on TK-10, 17.3 µM (inactive); in the test on OVCAR-4 it was 16 µM (inactive).

In the case of `CC(=O)N1CCOC12N=NC(C)(C)O2` (stereo not drawn), the GI50 in the test on SF-268, in the test with HOP-92, in the test with SK-MEL-28, with HT-29, in the test with NCI-H522 and with HOP-62 was > 100 µM (inactive) in each case. Further, the GI50 with M14, with 786-0, in the test on SF-295, in the test with EKVX, in the test with UO-31 and with COLO 205 was > 100 µM (inactive) in each case. Moreover, the GI50 in the test on SR, in the test on UACC-62, in the test on LOX IMVI, in the test with MOLT-4, with TK-10 and in the test on OVCAR-4 was > 100 µM (inactive) each time.
